Test results published in patent US12637499B2, “Adrenomedullin analog, method for producing the same, and pharmaceutical use thereof” (priority 2020, dated 2026).
Where two headings read alike, the source gives them in different places. Where a SMILES comes first, the peptide text is derived from it. Bridges are numbered along the chain shown (N, C = ends).

Experiments:
in vivo [1] = conditions: male, Wistar, rat, sc, 50 nmol/kg; for AUC: in vivo; for Cmax / half-life: plasma
Description: (§1) Eight-week-old male Wistar rats were purchased from Charles River Laboratories Japan, Inc. The rats were grown with normal feeds in the absence of specific pathogens under cycles of a 12-hour light period and a 12-hour dark period. […] To determine plasma AM concentrations, 50 nmol/kg of AM or an AM analog was subcutaneously administered. A peripheral blood sample was collected from the tail vein into a test tube (containing 21 μg of aprotinin and 0.3 mg of EDTA-2Na) at predetermined times (0, 15, 30, 60, and 120 minutes after administration). The test tube was centrifuged at 1,700×g to afford plasma.

[2] = 50 nmol/kg subcutaneous, Experiment VI
Description: as §1

in vitro [3] = conditions: for change in amount with the lapse of reaction time in reaction mixture with serum: Experiment IV, up to 240 minutes; for remaining at 4 h: serum, pH 7.1
Description: After the lapse of a predetermined time, a 30-μl portion was taken out of the reaction solution, transferred into 170 μl of 0.1% aqueous solution of trifluoroacetic acid (TFA), and stored at −80° C. until analysis.
Quantitative analysis was performed for AM contained in the thus-obtained samples of a reaction mixture with serum or plasma by using specific fluoroimmunoassay (Tosoh Corporation) with two antibodies differing in their recognition sites. […] In the figure, the abscissa represents reaction time (min), and the ordinate represents concentration of AM (UM).
In the figure, the abscissa represents reaction time (min), and the ordinate represents concentration of AM or an AM analog (μM).
In the figure, the abscissa represents the type of AM or an AM analog, and the ordinate represents residual rates of AM or an AM analog (%).

in vivo [4] = test: in vivo
Description: Seven-week-old male Wistar rats were prepared, and grown with normal feeds. To determine plasma AM concentrations, 50 nmol/kg of AM or an AM analog was subcutaneously administered. A peripheral blood sample was collected from the tail vein into a Kantan tube® (containing heparin Na, Eiken Chemical Co., Ltd., Tochigi, Japan) at predetermined times (0, 15, 30, 60, and 120 minutes after administration). The tube was centrifuged at 2,000×g. Plasma was collected from the tube, and transferred into a test tube (containing 21 μg of aprotinin and 0.3 mg of EDTA-2Na) and stored. […] In the figure, the abscissa represents elapsed time after subcutaneous administration (hr), and the ordinate represents concentration in plasma of AM or an AM analog (pM). In addition, maximum concentrations in blood (Cmax) of AM or the AM analogs in rat plasma after subcutaneous administration were calculated.

[5] = target: T1, AM type 1 receptor (AMI receptor) (Homo sapiens, UniProt O60895+Q16602); test: Intracellular cAMP production in HEK293 cells stably expressing AM type 1 receptor (Experiments V and IX); format: cell-based
T1 construct: expressed in transfected cells; medium contains hygromycin B and Geneticin
Excerpt: The adrenomedullin activity exerted by AM, shown above with examples, will be exerted via increased concentration of intracellular cAMP in normal cases. Thus, the increased concentration of intracellular cAMP can be considered as an index of the adrenomedullin activity of the compound according to the aspect. In each aspect of the invention, the effect of increasing concentration of intracellular cAMP can be evaluated, for example, by adding a target compound to a cultured cell line (HEK293 cell line) caused to stably express an AM type 1 receptor (AMI receptor) and measuring the amount of intracellular cAMP produced.
The physiological effect of AM is known to be exerted via increase in the concentration of intracellular cAMP (see Kitamura K et al., Biochem Biophys Res Commun, 30 Apr. 1993, Volume 192, Issue 2, pp. 553-560). Accordingly, each AM analog was added to a cultured cell line (HEK293 cell line) caused to stably express an AM type 1 receptor (AMI receptor), and the amount of intracellular cAMP produced was measured. HEK293 cells were cultured in Dulbecco's modified Eagle's medium (with 10% fetal bovine serum, 100 U/ml penicillin G, […] streptomycin, 0.25 mg/ml amphotericin B, […] hygromycin B, and […] Geneticin) in a fibronectin-coated 24-well plate (Thermo Fisher Scientific) (under 37° C., humidified, 5% CO2 conditions). After culturing for 3 days, 90%-confluent cells with accumulation of intracellular cAMP stimulated were subjected to experiment. The medium was exchanged with Hanks's balanced salt solution containing 20 mM 4-(2-hydroxyethyl)-1-piperazineethanesulfonic acid and 0.1% bovine serum albumin, AM or an AM analog was added to the cells in the presence of 0.5 mM isobutylmethylxanthine (IBMX), and the cells were incubated at 37° C. for 15 minutes. The reaction was terminated by addition of cell lysis buffer. Then, the amount of intracellular cAMP produced in the HEK293 cells of each well was measured using an ELISA kit for cAMP measurement (GE Healthcare Japan Corp., #RPN2251). […] In the figure, the abscissa represents logarithms of concentration of AM or an AM analog added (M), and the ordinate represents amounts of intracellular cAMP produced in HEK293 cells stably expressing an AMI receptor (fmol/well).
In the figure, the abscissa represents logarithms of concentration of AM or an AM analog added (M), and the ordinate represents amounts of intracellular cAMP produced in HEK293 cells stably expressing an AMI receptor (fmol/ml).

in vitro [6] = conditions: Experiment VIII; 10^−7 M, 37° C.; 4 hours after the beginning of reaction
Description: The stabilities of the AM analog peptides in serum were evaluated with the same procedure as in Experiment I except the following procedure. […] A reaction mixture containing 4 μL of phosphate buffer, 20 μL of human serum (Sigma-Aldrich Co. LLC, USA), and 14 μL of water was prepared. To the reaction mixture, 2 μL of AM or an AM analog peptide (2×10^−6 M, final concentration: 10^−7 M) was added, and reaction was initiated at 37° C. The reaction was terminated by addition of 160 μL of ELISA buffer to the reaction mixture 0, 1, or 4 hours after the beginning of reaction. […] In the figure, the abscissa represents reaction time (hr), and the ordinate represents concentration in serum of AM or an AM analog (%) represented as relative values to concentration of AM or an AM analog at the beginning of reaction (i.e., 0 hours after the beginning of reaction).

T1 sequence (Q16602 23-461): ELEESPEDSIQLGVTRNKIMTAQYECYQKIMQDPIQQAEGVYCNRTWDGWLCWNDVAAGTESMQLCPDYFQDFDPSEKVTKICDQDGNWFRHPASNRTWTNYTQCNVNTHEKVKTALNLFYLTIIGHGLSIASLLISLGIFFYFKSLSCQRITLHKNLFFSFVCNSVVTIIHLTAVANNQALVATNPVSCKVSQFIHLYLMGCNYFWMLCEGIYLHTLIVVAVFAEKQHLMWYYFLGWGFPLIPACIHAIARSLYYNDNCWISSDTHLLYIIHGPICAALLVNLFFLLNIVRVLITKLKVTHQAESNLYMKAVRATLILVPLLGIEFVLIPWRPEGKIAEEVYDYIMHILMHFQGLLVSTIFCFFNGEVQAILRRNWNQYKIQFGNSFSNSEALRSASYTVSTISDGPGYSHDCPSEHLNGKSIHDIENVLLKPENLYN
T1 sequence (O60895 43-175): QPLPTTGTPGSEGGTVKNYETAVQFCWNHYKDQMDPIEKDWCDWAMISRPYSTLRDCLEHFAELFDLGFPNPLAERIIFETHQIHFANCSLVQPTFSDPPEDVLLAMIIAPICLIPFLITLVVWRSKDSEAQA

| Compound | AUC (in vivo [1]) | Cmax (in vivo [1]) | half-life (in vivo [1]) | detection in rat plasma after subcutaneous administration [2] | change in amount with the lapse of reaction time in reaction mixture with serum (in vitro [3]) | remaining at 4 h (in vitro [3]) | detection in rat plasma after subcutaneous administration (in vivo [4]; 50 nmol/kg subcutaneous, Experiment X) | Cmax (in vivo [4]; male, Wistar, rat, in vivo, sc, 50 nmol/kg) | EC50 [5] | intracellular cAMP concentration-increasing activity ([5]; Experiment IX, addition at 10^−9 M or 10^−8 M, HEK293 cells) | stability in reaction mixture with human serum (in vitro [6]) |
| --- | --- | --- | --- | --- | --- | --- | --- | --- | --- | --- | --- |
| CC[C@H](C)[C@H](NC(=O)[C@H](CCC(N)=O)NC(=O)[C@H](Cc1c[nH]cn1)NC(=O)[C@H](C)NC(=O)[C@H](CC(C)C)NC(=O)[C@H](CCCCN)NC(=O)[C@H](CCC(N)=O)NC(=O)[C@@H](NC(=O)[C@@H](NC(=O)[C@@H]1CSSC[C@H](NC(=O)CNC(=O)[C@H](Cc2ccccc2)NC(=O)[C@@H](N)CO)C(=O)N[C@@H](CCCNC(=N)N)C(=O)N[C@@H](Cc2ccccc2)C(=O)NCC(=O)N[C@@H]([C@@H](C)O)C(=O)N1)[C@@H](C)O)C(C)C)C(=O)N[C@@H](Cc1ccc(O)cc1)C(=O)N[C@@H](CCC(N)=O)C(=O)N[C@@H](Cc1ccccc1)C(=O)N[C@H](C(=O)N[C@@H](CC(=O)O)C(=O)N[C@@H](CCCCN)C(=O)N[C@@H](CC(=O)O)C(=O)N[C@@H](CCCCN)C(=O)N[C@@H](CC(=O)O)C(=O)N[C@@H](CC(N)=O)C(=O)N[C@H](C(=O)N[C@@H](C)C(=O)N1CCC[C@H]1C(=O)N[C@H](CCCNC(=N)N)C(=O)N[C@@H](CO)C(=O)N[C@@H](CCCCN)C(=O)N[C@H](C(=O)N[C@@H](CO)C(=O)N1CCC[C@H]1C(=O)N[C@@H](CCC(N)=O)C(=O)NCC(=O)N[C@@H](Cc1ccc(O)cc1)C(N)=O)[C@@H](C)CC)C(C)C)[C@@H](C)O (relative stereo) [[D-Arg-44]hAM(13-52), SFGCRFGTCTVQKLAHQIYQFTDKDKDNVAP-*R-S-K-I-S-P-Q-G-Y-CONH2] | 0.0591 nM·h | 0.111 nM | 1.27 h | detected in rat plasma 15 minutes after administration | almost no decrease or only slight decrease in amount | 81.9% | – | – | – | – | – |
| CC[C@H](C)[C@H](NC(=O)[C@H](CCC(N)=O)NC(=O)[C@H](Cc1c[nH]cn1)NC(=O)[C@H](C)NC(=O)[C@H](CC(C)C)NC(=O)[C@H](CCCCN)NC(=O)[C@H](CCC(N)=O)NC(=O)[C@@H](NC(=O)[C@@H](NC(=O)[C@@H]1CSSC[C@H](NC(=O)CNC(=O)[C@H](Cc2ccccc2)NC(=O)[C@@H](N)CO)C(=O)N[C@@H](CCCNC(=N)N)C(=O)N[C@@H](Cc2ccccc2)C(=O)NCC(=O)N[C@@H]([C@@H](C)O)C(=O)N1)[C@@H](C)O)C(C)C)C(=O)N[C@@H](Cc1ccc(O)cc1)C(=O)N[C@@H](CCC(N)=O)C(=O)N[C@@H](Cc1ccccc1)C(=O)N[C@H](C(=O)N[C@@H](CC(=O)O)C(=O)N[C@@H](CCCCN)C(=O)N[C@@H](CC(=O)O)C(=O)N[C@@H](CCCCN)C(=O)N[C@@H](CC(=O)O)C(=O)N[C@@H](CC(N)=O)C(=O)N[C@H](C(=O)N[C@@H](C)C(=O)N1CCC[C@H]1C(=O)N[C@@H](CCCCN)C(=O)N[C@@H](CO)C(=O)N[C@@H](CCCCN)C(=O)N[C@H](C(=O)N[C@@H](CO)C(=O)N1CCC[C@H]1C(=O)N[C@@H](CCC(N)=O)C(=O)NCC(=O)N[C@@H](Cc1ccc(O)cc1)C(N)=O)[C@@H](C)CC)C(C)C)[C@@H](C)O [[Lys-44]hAM(13-52), SFGCRFGTCTVQKLAHQIYQFTDKDKDNVAPKSKISPQGY-CONH2] (H-SFGCRFGTCTVQKLAHQIYQFTDKDKDNVAPKSKISPQGY-NH2; disulfide 4-9) | 0.227 nM·h | 0.396 nM | 1.47 h | detected in rat plasma 15 minutes after administration | almost no decrease or only slight decrease in amount | 51.8% | – | – | – | – | – |
| CC[C@H](C)[C@H](NC(=O)[C@H](CCC(N)=O)NC(=O)[C@H](Cc1c[nH]cn1)NC(=O)[C@H](C)NC(=O)[C@H](CC(C)C)NC(=O)[C@H](CCCCN)NC(=O)[C@H](CCC(N)=O)NC(=O)[C@@H](NC(=O)[C@@H](NC(=O)[C@@H]1CSSC[C@H](NC(=O)CNC(=O)[C@H](Cc2ccccc2)NC(=O)[C@@H](N)CO)C(=O)N[C@@H](CCCNC(=N)N)C(=O)N[C@@H](Cc2ccccc2)C(=O)NCC(=O)N[C@@H]([C@@H](C)O)C(=O)N1)[C@@H](C)O)C(C)C)C(=O)N[C@@H](Cc1ccc(O)cc1)C(=O)N[C@@H](CCC(N)=O)C(=O)N[C@@H](Cc1ccccc1)C(=O)N[C@H](C(=O)N[C@@H](CC(=O)O)C(=O)N[C@@H](CCCCN)C(=O)N[C@@H](CC(=O)O)C(=O)N[C@@H](CCCCN)C(=O)N[C@@H](CC(=O)O)C(=O)N[C@@H](CC(N)=O)C(=O)N[C@H](C(=O)N[C@@H](C)C(=O)N1CCC[C@H]1C(=O)N[C@@H](CO)C(=O)N[C@@H](CCCCN)C(=O)N[C@H](C(=O)N[C@@H](CO)C(=O)N1CCC[C@H]1C(=O)N[C@@H](CCC(N)=O)C(=O)NCC(=O)N[C@@H](Cc1ccc(O)cc1)C(N)=O)[C@@H](C)CC)C(C)C)[C@@H](C)O [[des-Arg-44]hAM(13-52), SFGCRFGTCTVQKLAHQIYQFTDKDKDNVAPSKISPQGY-CONH2] (H-SFGCRFGTCTVQKLAHQIYQFTDKDKDNVAPSKISPQGY-NH2; disulfide 4-9) | – | – | – | – | – | – | detected in rat plasma 15 minutes after administration | 0.679 nM | 1.95 nM | approximately equivalent to that of hAM(1-52) or hAM(13-52) | stable |
